Structure (SMILES)	melting point
CCC(O)(c1cccc(C(F)(F)F)c1)c1ccc(O)cc1O (configuration not stated)	137 to 138 °C
N#COc1ccc(C2(c3ccc(OC#N)cc3)OC(=O)c3ccccc32)cc1	130 °C
COc1ccc(S(=O)(=O)N2CCCC2)cc1	88 to 89 °C
C=CCN(CC=C)Cc1csc(-c2ncn3c2CN(C)C(=O)c2cc(F)ccc2-3)n1	125 to 127 °C
COc1ccc(-n2nc(S)nc2-c2ccccc2)cc1	260 °C
Cc1c(C(=O)O)oc(=O)c2ccccc12	248 to 249 °C
O=C(C=Cc1cccc(-c2ccc(O)cc2)c1)NO	127 to 128 °C
O=C(Nc1ccc(Cl)cc1)Nc1ccc2[nH]c(C(F)(F)F)nc2c1	264 to 268 °C
OC(CCCc1ccc(Cl)cc1)(Cc1ccc(Cl)cc1)c1ccc(OCc2ccc3ccccc3n2)cc1 (configuration not stated)	123 to 124 °C
CCN(CC)C(=O)N[C@H]1CC[C@H](CCN2CCN(c3cccc4c3CCC4)CC2)CC1	157 to 159 °C
N#CCCNC(=O)c1cccc(-c2cncc3cc(Cc4cccc(C(F)(F)F)c4)oc23)c1	152 to 154 °C
CCOC(=O)Cc1cnn(CC)c1O	107 to 108 °C
Cc1cc2n(c1C(=O)c1cccs1)CCC2C(=O)OC(C)C (configuration not stated)	102 °C
CCCCc1nc(Cl)c(C(=O)OC)n1Cc1ccc(-c2ccccc2C(=O)O)cc1	154 to 155 °C
CNC(=S)Nc1ccccc1-c1nc(C)c(-c2cccnc2)[nH]1	192 to 193 °C
Cc1cc(C)cc(NC(=O)CO)c1	114 °C
CC1=C(C(=O)OCC2CCN(Cc3ccccc3)C2)C(c2cccc([N+](=O)[O-])c2)c2c(ccnc2OC(C)C)N1 (configuration not stated)	125 to 128 °C
COC(=O)c1c(-c2ccc(F)cc2)c2c3ccccc3ccn2c1C(C)C	170 to 173 °C
CCOC(Cc1ccc(NC/C=C/c2ccc(OS(C)(=O)=O)cc2)cc1)C(=O)O (configuration not stated)	146 to 148 °C
COc1ccn(O)c(=O)c1	174 to 175 °C
Cc1cc(CCCCCCO)cc(C(C)(C)C)c1O	45 °C
COc1ccc(-c2ncc(-c3cnc(-c4ccccc4)[nH]3)cn2)cc1OC	231 °C
CCCCC(NC(=O)OCc1ccccc1)P(C)(=O)O (configuration not stated)	134 to 135 °C
O=C(O)CCc1oc(-n2cncn2)nc1-c1ccc(Cl)cc1	168 to 169 °C
N#Cc1ccc(C2=NNC(=O)C3CC23)cc1 (configuration not stated)	265 to 266 °C
CCCCCCn1c(=O)[nH]c2ncccc2c1=O	166 to 168 °C

Structure (SMILES)	melting point
CCOC(=O)CC(NC(=O)c1cccc(NC(=O)c2csc(NC(=N)N)n2)c1)c1ccccc1 (racemic)	117 °C
CC(C)N1CCc2ccc(C(=O)CCC(=O)N3CCC(c4ccc(Cl)cc4)CC3)cc2C1	113 to 115 °C
COCCCCCC(=O)c1ccc(S(C)=O)cc1 (configuration not stated)	74 to 77 °C
CCOCc1nc2c(N)nc3ccccc3c2n1CCCCS(=O)(=O)Nc1ccccn1	197 to 200 °C
c1ccc(N2CCN(CCc3ccc4ccccc4n3)CC2)cc1	79 °C
NCCc1ccc(OCCC(=O)O)cc1	216 °C
O=C1Nc2ccc(Cl)cc2C(c2ccccc2)=NC1OCCc1ccc(O)cc1 (configuration not stated)	222 to 230 °C
CN(C)c1nc(N(C)C)c2nnn(Cc3ccccc3F)c2n1	123 to 125 °C
CS(=O)(=O)c1nccc(-c2ccccc2)n1	136 to 137 °C
CCCCc1ncc(CCC(=O)O)n1Cc1ccccc1Cl	164 °C
C=CCn1c(COCc2ccc(OC)cc2)nc(C(C)C)c1Sc1cc(Cl)cc(Cl)c1	100 to 102 °C
CC(C)n1cc(C(=O)NCc2ccc(Cl)cc2)c(=O)c2cc(I)sc21	173 to 180 °C
O=C(NCc1ccco1)Nc1cc(N2CC(c3ccccc3)CC2=O)ccn1 (configuration not stated)	158 to 160 °C
Cc1cc(CCCOc2c(C)cc(C(=O)O)cc2C)on1	156 to 157 °C
CC1(C)CC(O)C(C)(C)c2cc(Cn3cccn3)c(/C=C/c3ccc(C(=O)O)cc3)cc21 (configuration not stated)	242 °C
CCCCCCCCCCCCCCOc1cc(C)ccc1C	36.9 to 37.9 °C
Brc1cccc(P(c2ccccc2)c2ccccc2)n1	81 °C
CCC=C(CCC)c1c2c(nn1C)N(c1c(C)cc(C)cc1Cl)CCC2	86.7 to 88.2 °C
Cc1ccc(C(c2ccc(C)cc2)(c2ccc(C)cc2)c2ccc(C#N)cc2)cc1	207 to 209 °C
CC(/C=C/c1c(C)sc(C)c1C)=C(F)\C=C\C(C)=C\C(=O)O	217 to 223 °C
Cc1ccc(S(=O)(=O)N2CCC(c3ccc(CCCCC(=O)O)cc3)CC2)cc1	164 to 170 °C
CS(=O)c1ccc(OCCCOc2cc(OCCCCCCCCCCCCOc3ccccc3)cc(N(CC(=O)O)CC(=O)O)c2)cc1 (configuration not stated)	106 to 108 °C
O=c1cc(-c2ccncc2)nc2[nH]c3ccccc3n12	300 to 302 °C
CC1=CC(c2ccc(F)c(Cl)c2)C2=C(CCCC2=O)N1 (configuration not stated)	164 to 167 °C
C[C@@H](c1ccc(-c2ncc(C(=O)N(C)C)s2)cc1)N1CC[C@](CC(C)(C)O)(c2ccccc2)OC1=O	110 to 112 °C
CN1CCN(C2NC(=O)c3ccccc32)CC1 (configuration not stated)	168 to 170 °C

Structure (SMILES)	melting point
CCOC(=O)c1cn(Cc2ccccc2)nc1OCc1ccc(OC)c(OCc2nc(-c3ccco3)oc2C)c1	147 to 148 °C
COc1cc(CCNC(=S)Nc2nccs2)ccc1OC(C)C	140 to 141 °C
CCSc1ccc2cc(C(C)=O)ccc2c1	69 °C
NCC1CCCC(CNc2ncc3ncnc(Nc4ccc(F)c(Cl)c4)c3n2)C1 (configuration not stated)	145 to 148 °C
CN1CC(CCN2CCN(c3ccccc3Cl)CC2)OC1=O (configuration not stated)	79.5 to 81.5 °C
C[C@H](NC(=O)OC(C)(C)C)C(=O)CCl	64 to 66.5 °C
Cn1c(=O)c(=O)[nH]c2ccc3ccccc3c21	294 to 295 °C
COc1ccc(CCNc2cc(-n3cccn3)nc(-c3cccs3)n2)cc1	99.6 to 100 °C
Cn1cc(-c2ccccc2)c(=O)c(-c2cccc(I)c2)c1	190 to 193 °C
CCC1(c2ccccc2)C(=O)N(CCO)C(=O)N(CCO)C1=O	107 to 109 °C
CC(C)(C)OC(=O)NCC(=O)N1CCC[C@H]1C(=O)OC[C@H](Cc1ccccc1)Nc1ccc(O)c2c1C(=O)c1c(O)cccc1C2=O	100 °C
O=C(NCc1nc2cnc3cc(Br)ccc3c2n1CC1CCOCC1)C1CC1	140 °C
Cc1oc(C=Cc2cccc(Cl)c2)nc1CO	147 to 148 °C
COc1ccc(SCc2ccccc2)cc1	48 to 50 °C
COc1nc(OC)c(C(C)C)c(C(C#N)c2cc(C)cc(Cl)c2)n1 (configuration not stated)	105 to 106 °C
O=c1cc(C(F)(F)F)c2ccc(NCCc3ccccc3)nc2o1	104 to 106 °C
CCS(=O)(=O)c1ccc(C(CC2CCCC2)C(=O)NC(=O)NC)cc1 (configuration not stated)	200 to 201 °C
C=CCN1CCC23CCCCC2C1Cc1ccc(O)cc13 (configuration not stated)	197 to 198 °C
CCCn1nc2c(N)nc3ccccc3c2c1CCNC(=O)NCC	206 to 207 °C
CN1CC(c2ccccc2)c2ccccc2C(c2ccccc2)C1(C)C (configuration not stated)	137 to 138 °C
CCOC(=O)CC(NC(=O)CNC(=O)c1csc(N=C2NCCN2)n1)c1cccnc1 (racemic)	198 to 199 °C
CCC1(CC)C(=O)N(C(C)(C)C)CC(C)(C)N1OC(=O)C(c1ccccc1)c1ccccc1	109 °C
CCOC(=O)c1cnc(C)nc1-c1ccc(OC)c(OC)c1	98 to 100 °C
CC(C(N)=O)C1CC(c2ccc(N3CCSCC3)c(F)c2)=NO1 (configuration not stated)	188 to 189 °C
Cc1cc2occc2c(N2CCN(CC[C@H]3CC[C@H](NC(=O)CC4CCOCC4)CC3)CC2)n1	212 °C
Cn1cnc2cc(NN)ccc2c1=O	208 to 211 °C

Structure (SMILES)	melting point
CCCN(CCC)c1c([N+](=O)[O-])cc(C)c(C(C)C)c1[N+](=O)[O-]	48.5 to 49 °C
COc1cc(N)c(Cl)cc1C(=O)NCC1CCN(CCCCNC(=O)c2ccccc2)CC1	165 to 168 °C
CC1(C)Oc2ccc(C#N)cc2C(Oc2cccnc2)C1(C)O (configuration not stated)	193 to 196 °C
CCOC(=O)CCc1oc(-n2cncn2)nc1-c1ccc(Cl)cc1	99 to 100 °C
NCCCC=CCCC(=O)O	139 to 144 °C
CC(O[Si](C)(C)C(C)(C)C)C1C(=O)NC1C1CCCC(OCCCl)C1O (configuration not stated)	97 to 100 °C
CCOc1c([C@@H]2C[C@H]2C=O)cc(C(C)(C)C)cc1C(C)(C)C (racemic)	123 to 126 °C
CC(C)c1nn(-c2ccc3ccccc3n2)c(-c2ccc(F)cc2)c1Br	110 to 114 °C
C=CCCCCCCCCC(=O)N1CC[C@H]2[C@H]1[C@@H](CCC)C(=O)N2S(C)(=O)=O (relative stereo)	62 to 64.6 °C
Cc1nc(-n2cc(CCCc3ccccc3)nn2)sc1C(=O)NCc1ccc(F)c(F)c1	81 to 84 °C
N#CCOc1ccc2cc(CNC(=O)c3cc4ccccc4o3)ccc2c1	138 to 139 °C
COc1cccc2c(CCC3CC(=O)CCC3=O)cccc12 (configuration not stated)	94 to 100 °C
CCN1C(=O)C(C)(C)C(=O)N(C)c2cc(CN(C)Cc3ccccc3CN3C(=O)CCc4ccccc43)ccc21	125 to 127 °C
COC(=O)CSc1ncnc(N2CCc3ccccc3CC2)c1[N+](=O)[O-]	113 to 115 °C
O=C(NC(C(=O)NC(CO)COCc1ccccc1)C(Cc1ccccc1)C(=O)O)OCc1ccccc1 (configuration not stated)	100 to 103 °C
O=C(c1cccs1)c1cnn2c(-c3cccs3)ccnc12	193 to 195 °C
O=C(NC(=O)c1cccs1)NC1CCN(Cc2ccc3ccccc3c2)CC1	217 to 219 °C
CNC(=O)n1cnc(C(=O)NC(C)(C)C)c1N	145 to 147 °C
COc1ccc(C(=O)[C@H]2CC=CC[C@H]2C(=O)O)cc1OC1CCCC1 (relative stereo)	114 to 115 °C
N#CC1CCCc2cc3c(nc21)CCCC3 (configuration not stated)	88 to 90 °C
COC(=O)c1ccc(-c2cccc(OC)c2)nc1	89.5 to 90 °C
O=C(O)c1ccc(C(=O)O)c2c(Br)cccc12	288 to 290 °C
Cc1cc(C)n(C(=O)CCNS(=O)(=O)c2ccc(Cl)cc2)n1	101 °C
CC(C)(C)OC(=O)N1CCC(CNC(=O)c2cc(Cl)c(N)c3c2OCC3)C(O)C1 (configuration not stated)	218 °C

Source: a melting point compilation (Tetko et al.; mined from patent text by program, amines drawn as free bases though some values may be those of a salt)
